Tests used:
Experiment in all cases: relative viability (nuclei count vs DMSO), 5 days (fraction); higher = more cells survive
TPCA-1 + Tozasertib = compound: C1=CC(=CC=C1C2=CC(=C(S2)NC(=O)N)C(=O)N)F [TPCA-1] + Cc1cc(Nc2cc(N3CCN(C)CC3)nc(Sc3ccc(NC(=O)C4CC4)cc3)n2)n[nH]1 [Tozasertib] (partner 0.1 µM)
Method in brief: (§1)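 Relative viability was taken as the ratio of nuclei in treated wells to nuclei in vehicle wells. Lung cancer cell lines in 1536-well plates received compounds by pin tool one day after seeding, either one drug alone or a fixed anchor-drug dose plus five library-drug doses (not always all listed) in √10 steps. Nuclei were counted on 4× images after 5 days of treatment, and values are medians of duplicate plates.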

TPCA-1 + AZD7762 = compound: C1=CC(=CC=C1C2=CC(=C(S2)NC(=O)N)C(=O)N)F [TPCA-1] + NC(=O)Nc1cc(-c2cccc(F)c2)sc1C(=O)N[C@H]1CCCNC1 [AZD7762] (partner 0.2 µM)
Method in brief: as §1

TPCA-1 + Phenformin = compound: C1=CC(=CC=C1C2=CC(=C(S2)NC(=O)N)C(=O)N)F [TPCA-1] + N=C(N)NC(=N)NCCc1ccccc1 [Phenformin] (partner 250 µM)
Method in brief: as §1

[1] = compound: C1/C(=C\C2=CC=CS2)/C(=O)/C(=C/C3=CC=CS3)/C1 + CCNC(=O)c1noc(-c2cc(C(C)C)c(O)cc2O)c1-c1ccc(CN2CCOCC2)cc1 [Luminespib] (partner 0.01 µM)
Method in brief: as §1

Cell Line | relative viability (TPCA-1 + Tozasertib; first compound 0.04 µM) | relative viability (TPCA-1 + Tozasertib; first compound 0.1265 µM) | relative viability (TPCA-1 + Tozasertib; first compound 0.4 µM) | relative viability (TPCA-1 + Tozasertib; first compound 1.265 µM) | relative viability (TPCA-1 + Tozasertib; first compound 4 µM) | relative viability (TPCA-1 + AZD7762; first compound 0.04 µM) | relative viability (TPCA-1 + AZD7762; first compound 0.1265 µM) | relative viability (TPCA-1 + AZD7762; first compound 0.4 µM) | relative viability (TPCA-1 + AZD7762; first compound 1.265 µM) | relative viability (TPCA-1 + AZD7762; first compound 4 µM) | relative viability (TPCA-1 + Phenformin; first compound 0.04 µM) | relative viability (TPCA-1 + Phenformin; first compound 0.1265 µM) | relative viability (TPCA-1 + Phenformin; first compound 0.4 µM) | relative viability (TPCA-1 + Phenformin; first compound 1.265 µM) | relative viability (TPCA-1 + Phenformin; first compound 4 µM) | relative viability ([1]; first compound 0.2 µM) | relative viability ([1]; first compound 0.6325 µM) | relative viability ([1]; first compound 2 µM) | relative viability ([1]; first compound 6.325 µM) | relative viability ([1]; first compound 20 µM)
NCI-H2126 | 0.877 | 0.768 | 0.886 | 0.829 | 0.338 | 0.996 | 0.936 | 1.03 | 0.978 | 0.87 | 0.561 | 0.499 | 0.53 | 0.537 | 0.44 | 0.952 | 0.84 | 0.963 | 0.804 | 0.867
NCI-H2170 | 0.731 | 0.644 | 0.718 | 0.66 | 0.387 | 1.13 | 0.815 | 0.892 | 0.766 | 0.474 | 0.478 | 0.401 | 0.424 | 0.402 | 0.362 | 0.98 | 0.582 | 0.788 | 0.632 | 0.719
NCI-H2342 | 0.437 | 0.438 | 0.499 | 0.617 | 0.391 | 0.504 | 0.469 | 0.403 | 0.349 | 0.404 | 0.612 | 0.538 | 0.574 | 0.504 | 0.47 | 0.761 | 0.654 | 0.767 | 0.615 | 0.8
NCI-H2347 | 0.527 | 0.52 | 0.454 | 0.599 | 0.336 | 0.729 | 0.717 | 0.923 | 0.739 | 0.633 | 0.652 | 0.331 | 0.451 | 0.262 | 0.264 | 0.405 | 0.959 | 0.381 | – | 0.466
NCI-H2405 | 0.753 | 0.75 | 0.765 | 0.754 | 0.555 | 0.859 | 0.738 | 0.877 | 0.79 | 0.648 | 0.459 | 0.37 | 0.471 | 0.166 | 0.38 | 0.818 | 0.773 | 0.743 | 0.673 | 0.675
NCI-H3122 | 0.465 | 0.37 | 0.463 | 0.329 | 0.268 | 1.1 | 0.97 | 1.04 | 0.941 | 0.957 | 0.383 | 0.401 | 0.409 | 0.374 | 0.404 | 0.112 | 0.0975 | 0.0926 | 0.0901 | 0.086
PC-3 [JPC-3] | 0.869 | 0.874 | 0.892 | 0.848 | 0.545 | 0.844 | 0.802 | 0.85 | 0.823 | 0.655 | 0.461 | 0.461 | 0.484 | 0.486 | 0.468 | 0.807 | 0.645 | 0.689 | 0.556 | 0.659
PC-14 | 0.587 | 0.55 | 0.58 | 0.585 | 0.28 | 0.471 | 0.305 | 0.374 | 0.696 | 0.43 | 0.575 | 0.492 | 0.717 | 0.508 | 0.568 | 0.139 | 0.145 | 0.179 | 0.187 | 0.15
RERF-LC-KJ | 0.556 | 0.518 | 0.61 | 0.43 | 0.29 | 1.03 | 0.844 | 0.914 | 0.739 | 0.652 | 0.425 | 0.393 | 0.424 | 0.408 | 0.37 | 1.26 | 1.36 | 1.25 | 1.15 | 1.14
SW 900 | 0.612 | 0.556 | 0.56 | 0.485 | 0.245 | – | – | 0.685 | 0.631 | 0.586 | 0.79 | 0.577 | 0.518 | 0.395 | 0.529 | 0.16 | 0.173 | 0.181 | 0.175 | 0.156

Reference: the supplement of paper PMC10307832
